Consider 13 compounds from patent publication US10174013B2, “Benzimidazole derivatives as kinase inhibitors” (SELVITA S.A., priority 2012, dated 2019).

Each structure is given as a SMILES string. pIC50: −log10 of the molar value. Structures can show the parent of a compound that is named as a salt. Where two headings read alike, the source gives them in different places. Bounds are passed on as bounds.

The target in one experiment is Pim-1 (Homo sapiens (Human), UniProt P11309). Kind of experiment: ADP-Glo Kinase Assay, Pim-1. In kind it is biochemical. To be noted: 1 μM compound; for inhibition at 1 µM: read-out: Pim-1 % INH (1 μM). The gist of the method: (§1)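 Buffer was MOPS 5 mM (pH 7.5) with MgCl2, EDTA and DTT; ATP set at apparent Km per kinase. Compounds were diluted in assay buffer to 1000 nM. Kinase-generated ADP was converted to luciferase signal and normalised to percent inhibition.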
Sequence of Pim-1 (P11309 whole entry): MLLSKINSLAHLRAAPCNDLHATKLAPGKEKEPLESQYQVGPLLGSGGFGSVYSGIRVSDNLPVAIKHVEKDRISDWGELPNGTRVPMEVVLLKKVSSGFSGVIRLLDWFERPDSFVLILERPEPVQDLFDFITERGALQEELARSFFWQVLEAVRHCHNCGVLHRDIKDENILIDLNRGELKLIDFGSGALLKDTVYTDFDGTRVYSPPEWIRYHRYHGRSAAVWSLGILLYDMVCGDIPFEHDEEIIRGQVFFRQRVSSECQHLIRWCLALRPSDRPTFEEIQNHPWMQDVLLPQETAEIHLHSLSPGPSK
A general note: ADP-Glo turns the ADP formed in a reaction into a luminescent signal.

A further experiment deals with Pim-2 (Homo sapiens (Human), UniProt Q9P1W9). Kind of experiment: ADP-Glo Kinase Assay, Pim-2. The class given is biochemical. The following applies: 1 μM compound; for inhibition at 1 µM: read-out: Pim-2 % INH (1 μM). As to the method: (§2) Compounds of the present invention were tested for their inhibitory activity against Pim-1, Pim-2, Pim-3, Flt3 wt, Flt3 ITD, CDK2/E and DYRK1. The testing of the compounds was carried out using the ADP-Glo™ Kinase Assay from Promega Corporation (Madison, Wis., USA).
Sequence of Pim-2 (Q9P1W9 whole entry): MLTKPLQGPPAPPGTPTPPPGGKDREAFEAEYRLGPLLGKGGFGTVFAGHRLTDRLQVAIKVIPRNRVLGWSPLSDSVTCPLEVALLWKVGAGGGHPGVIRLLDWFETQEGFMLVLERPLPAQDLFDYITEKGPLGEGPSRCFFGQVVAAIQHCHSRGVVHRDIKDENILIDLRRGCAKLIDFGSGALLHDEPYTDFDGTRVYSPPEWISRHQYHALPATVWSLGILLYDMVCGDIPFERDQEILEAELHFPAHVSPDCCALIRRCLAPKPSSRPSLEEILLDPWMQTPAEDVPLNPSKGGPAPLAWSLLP
(§3) The ADP-Glo™ Kinase Assay is a luminescent ADP detection assay to measure kinase activity by quantifying the amount of ADP produced during a kinase reaction. The kinase assay is performed in kinase assay buffer (5 mM MOPS, pH 7.5, 5 mM MgCl2, 0.4 mM EDTA, 1.5 mM DTT). Test samples initially dissolved in DMSO at 10 mM were diluted with the assay buffer to 1000 nM. A 30 μL volume/well of a mixture of substrates containing ATP (final ATP concentration in each kinase assay was equal to its apparent ATP Km).
(§4) The assay was performed in two steps: first, after the kinase reaction, an equal volume of ADP-Glo™ Reagent was added to terminate the kinase reaction and deplete the remaining ATP. Second, the Kinase Detection Reagent was added to simultaneously convert ADP to ATP and allowed the newly synthesized ATP to be measured using a luciferase/luciferin reaction. The luminescent signal generated was proportional to the ADP concentration produced and was correlated with kinase activity. A microplate spectrophotometer (Synergy 2 multi-mode microplate reader [BioTek]) was used for detecting the luminescence. The data was normalized and the percent of inhibition was obtained according to the following equation: […]

In the next experiment the target is Pim-3 (Homo sapiens (Human), UniProt Q86V86). Kind of experiment: ADP-Glo Kinase Assay, Pim-3. The following applies: 1 μM compound; for inhibition at 1 µM: read-out: Pim-3 % INH (1 μM). The class given is biochemical. As to the method: as §2, §3, §4
For the next experiment, the target named is FLT3wt (Homo sapiens (Human), UniProt P36888). Kind of experiment: ADP-Glo Kinase Assay, Flt3 wt. In kind it is biochemical. The following applies: 1 μM compound; for inhibition at 1 µM: read-out: Flt3wt % INH (1 μM). The gist of the method: as §1
Sequence of FLT3wt (P36888 27-993): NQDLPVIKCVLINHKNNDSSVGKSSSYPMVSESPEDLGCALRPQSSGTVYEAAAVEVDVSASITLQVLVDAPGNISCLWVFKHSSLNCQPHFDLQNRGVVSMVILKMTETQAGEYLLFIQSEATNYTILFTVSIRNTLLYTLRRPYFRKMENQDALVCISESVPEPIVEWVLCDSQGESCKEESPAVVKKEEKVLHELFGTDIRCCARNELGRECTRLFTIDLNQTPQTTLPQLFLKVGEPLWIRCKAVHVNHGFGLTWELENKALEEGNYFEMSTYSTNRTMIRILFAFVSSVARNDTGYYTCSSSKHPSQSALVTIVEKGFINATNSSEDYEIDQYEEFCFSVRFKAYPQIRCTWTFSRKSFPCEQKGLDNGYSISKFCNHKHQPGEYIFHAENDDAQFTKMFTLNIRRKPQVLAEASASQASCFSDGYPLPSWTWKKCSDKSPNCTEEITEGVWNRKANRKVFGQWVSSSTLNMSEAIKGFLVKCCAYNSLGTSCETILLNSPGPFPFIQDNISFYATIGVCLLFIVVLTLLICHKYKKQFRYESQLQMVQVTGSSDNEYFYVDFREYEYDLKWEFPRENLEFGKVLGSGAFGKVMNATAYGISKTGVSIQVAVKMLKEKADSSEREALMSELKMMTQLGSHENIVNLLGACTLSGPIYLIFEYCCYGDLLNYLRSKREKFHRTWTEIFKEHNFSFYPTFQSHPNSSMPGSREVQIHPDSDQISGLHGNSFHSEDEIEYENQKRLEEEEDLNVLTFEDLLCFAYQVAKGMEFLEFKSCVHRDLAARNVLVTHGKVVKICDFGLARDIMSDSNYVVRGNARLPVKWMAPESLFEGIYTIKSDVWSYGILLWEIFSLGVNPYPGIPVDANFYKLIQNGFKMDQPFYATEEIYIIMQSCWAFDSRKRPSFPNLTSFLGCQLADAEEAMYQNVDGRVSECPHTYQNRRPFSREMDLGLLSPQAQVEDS
For the next experiment, the target named is CDK2/E (Homo sapiens (Human), UniProt P24941). Description: ADP-Glo Kinase Assay, CDK2/E. In kind it is biochemical. The following applies: 1 μM compound; for inhibition at 1 µM: read-out: CDK2/E % INH (1 μM). As to the method:
as §2, §3, §4

A further experiment addresses DYRK1 (Homo sapiens (Human), UniProt Q13627). Description: ADP-Glo Kinase Assay, DYRK1. The following applies: 1 μM compound; for inhibition at 1 µM: read-out: DYRK1A % INH (1 μM). In kind it is biochemical. In outline: as §1
The test system of another experiment is MV4-11 cells. Kind of experiment: Growth inhibition, MTS assay, MV4-11. The class given is cell-based, Human. The following applies: MTS cell viability, read-out: MV4-11 ED50; for pIC50: Homo sapiens, MV4-11, 72 h; for IC50: 72 hours. (Tetrazolium assays rely on reduction of a dye to a coloured formazan, in cell work by metabolically active cells.)
For another experiment, the system named is HEL92 cells. Description: Growth inhibition, MTS assay, HEL92. In kind it is cell-based, Human. The following applies: MTS cell viability, read-out: HEL92 ED50; for pIC50: Homo sapiens, 72 h; for IC50: 72 hours.
A further experiment concerns HepG2 cells. Kind of experiment: Growth inhibition, MTS assay, HepG2. In kind it is cell-based, Human. To be noted: MTS cell viability, read-out: HepG2 ED50; for pIC50: Homo sapiens, HepG2, 72 h; for IC50: 72 hours.
The test system of the next experiment is SW-480 cells. Description: Growth inhibition, MTS assay, SW-480. In kind it is cell-based, Human. To be noted: 72 hours, MTS cell viability, read-out: SW-480 ED50; for pIC50: Homo sapiens, SW480. The text has this: The following cell lines, were obtained and used in tests as outlined below: • Human myelomonocytic, biphenotypic leukemia MV4-11 cells (harboring a Flt3-ITD mutation); • Human Acute Myeloid Leukemia MOLM16 cells; • Human Acute Myeloid Leukemia MOLM13 cells (harboring a Flt3-ITD mutation); • Human Myeloid Leukemia KG-1 cells; • Human erythroleukemia HEL92 cells; • Human mantle cell lymphoma Jeko-1 cells; • Human hepatocellular carcinoma HepG2 cells; and • Human colon adenocarcinoma SW-480 cells.
The assays were carried out according to the following protocol, which is described as an example for the MV4-11 cells:
Ten thousand MV4-11 cells were inoculated into each well of a 96-well microplate (manufactured by Corning Corp.) using Iscove's MDM medium (culture medium) containing 10% fetal calf serum (FCS). The same day, a dimethyl sulfoxide (DMSO) solution of each test compound prepared in a concentration of 10 mmol/L was further diluted with DMSO to the desired concentrations (0.1, 0.5, 1, 2.5, 5 and 10 micromol/L), and the diluted solution was added to each well. The individual wells were further cultured in 5% carbon dioxide at 37° C. for 72 hours. […] Briefly, 10 μl MTS (3-(4,5-Dimethyl-2-thiazolyl)-5-(carboxymethoxyphenyl)-2-(4-sulfophenyl)-2H-tetrazolium was added to each well, and culturing was performed in 5% carbon dioxide at 37° C. for 2 hours. After this incubation and using a microplate spectrophotometer (Synergy 2 multi-mode microplate reader (BioTek)), the absorbance of each well was measured at 490 nm. The value for cells not incubated with a test compound was designated as 100%. By comparing these values with the absorbance difference obtained at the well in which each test compound was added, the cell viability (% viability) after treatment with the test compound was calculated.

Turning to `CC(O)Cn1c(N2CCNCC2)nc2c([N+](=O)[O-])c(Br)c(Br)cc21` (stereo not drawn) [Example 1BS], the inhibition at 1 µM on Pim-1 is above 95%; on Pim-2, 21%; on Pim-3, 48%; at FLT3wt, 39%; at CDK2/E, 21%; at DYRK1, 66%. In addition, the pIC50 with MV4-11 cells was 6.05; in the experiment on HEL92 cells, 5.34; in the experiment on HepG2 cells, 5.44.
For the compound `CC(C)n1c(NC2CCCNC2)nc2c(C#N)c(Br)c(Br)cc21` (stereo not drawn) [Example 1BT], the inhibition at 1 µM came out at 70% at Pim-1; 16% on Pim-2; 56% at Pim-3; 23% on FLT3wt; 26% on CDK2/E; 22% on DYRK1. Further, the figures for the pIC50 in the experiment on MV4-11 cells, in the experiment on HEL92 cells and in the experiment on HepG2 cells were 6.30, 5.24 and 5.92, respectively.
`CC(C)n1c(N2CCC[C@H](N)C2)nc2c(C#N)c(Br)c(Br)cc21` [Example 1BV]: the “Pim-1 % INH (1 μM)” value at Pim-1 is recorded as above 95%. Further, the “Pim-2 % INH (1 μM)” value at Pim-2 was 82%. The “Pim-3 % INH (1 μM)” value at Pim-3 is given as 91%. On FLT3wt, the “Flt3wt % INH (1 μM)” value was 39%. Besides, the “CDK2/E % INH (1 μM)” value on CDK2/E is listed as 11%. Further, the “DYRK1A % INH (1 μM)” value on DYRK1 came out at 80%. The IC50 came to 5100 nM in the experiment on MV4-11 cells and 2900 nM with HepG2 cells. In the experiment with HEL92 cells, the pIC50 is 5.28.
On to `O=[N+]([O-])c1c(Br)c(Br)cc2c1nc(N[C@@H]1CCCNC1)n2CC1CC1` [Example 1CH], for which the “Pim-1 % INH (1 μM)” value on Pim-1 was 82%. Besides, the “Pim-2 % INH (1 μM)” value on Pim-2 is 10%. Moreover, the “Pim-3 % INH (1 μM)” value at Pim-3 was found to be 32%. The “Flt3wt % INH (1 μM)” value at FLT3wt is 17%. On CDK2/E, the “CDK2/E % INH (1 μM)” value is 9%. Besides, the “DYRK1A % INH (1 μM)” value on DYRK1 worked out at 14%. Also, the IC50 turned out to be 5000 nM in the experiment with MV4-11 cells, 5700 nM in the experiment on HEL92 cells and 2200 nM in the experiment with HepG2 cells.
Turning to `O=[N+]([O-])c1c(Br)c(Br)cc2c1nc(N[C@H]1CCNC1)n2CC1CC1` [Example 1CI], on Pim-1, the “Pim-1 % INH (1 μM)” value is listed as above 95%. For the same compound, the “Pim-2 % INH (1 μM)” value on Pim-2 was 64%. The “Pim-3 % INH (1 μM)” value at Pim-3 is reported as 75%. Also, the “Flt3wt % INH (1 μM)” value on FLT3wt is on record as 19%. In addition, on CDK2/E, the “CDK2/E % INH (1 μM)” value is 10%. The “DYRK1A % INH (1 μM)” value on DYRK1 is recorded as 57%. The IC50 was found to be 1600 nM in the experiment with MV4-11 cells, 6100 nM in the experiment with HEL92 cells and 1400 nM in the experiment with HepG2 cells.
Consider `O=[N+]([O-])c1c(Br)c(Br)cc2[nH]c(N3CCNCC3)nc12` [Example 1E], for which the pIC50 in the experiment on MV4-11 cells was 5.48; in the experiment on HepG2 cells, 5.17; in the experiment with SW-480 cells it was 5.09.
For `CCn1c(N2CCC(N)CC2)nc2c([N+](=O)[O-])c(Br)c(Br)cc21` [Example 1I], the IC50 in the experiment on MV4-11 cells is 5100 nM; in the experiment on HepG2 cells, 4300 nM; with SW-480 cells, 5600 nM.
Consider `C#CCn1c(N2CCNCC2)nc2c([N+](=O)[O-])c(Br)c(Br)cc21` [Example 2B, 5,6-dibromo-4-nitro-2-(piperazin-1-yl)-1-(prop-2-yn-1-yl)-1H-1,3-benzodiazole hydrochloride], for which the inhibition at 1 µM was 53% on Pim-1, below 5% on FLT3wt, below 5% on CDK2/E and 61% at DYRK1. Further, the pIC50 in the experiment with MV4-11 cells was 5.51; in the experiment with HEL92 cells, 5.17; in the experiment with HepG2 cells, 5.85; with SW-480 cells, 5.26.
Take `O=[N+]([O-])c1c(Br)c(Br)cc2c1nc(N1CCNCC1)n2CC1CCC1` [Example 2F, 5,6-dibromo-1-(cyclobutylmethyl)-4-nitro-2-(piperazin-1-yl)-1H-1,3-benzodiazole hydrochloride]: the inhibition at 1 µM at Pim-1 was above 95%; on Pim-2, 70%; at Pim-3, 89%; at FLT3wt it was 78%; at CDK2/E, 15%; at DYRK1, above 95%. Moreover, the pIC50 in the experiment on MV4-11 cells was 6.52; with HEL92 cells, 5.68; in the experiment with HepG2 cells it was 5.74.
Turning to `CC(C)n1c(N2CCN[C@H](C)C2)nc2c([N+](=O)[O-])c(Br)c(Br)cc21` [Example 22AA, 5,6-dibromo-2-[(3R)-3-methylpiperazin-1-yl]-4-nitro-1-(propan-2-yl)-1H-1,3-benzodiazole], the inhibition at 1 µM on Pim-1 was above 95%; at Pim-2 it was 36%; on Pim-3 it was 88%; at FLT3wt it was 49%; on CDK2/E, 11%; at DYRK1 it was 43%. The figures for the pIC50 in the experiment with MV4-11 cells, in the experiment on HEL92 cells and in the experiment on HepG2 cells were 6.30, 5.92 and 5.74, respectively.
`CCn1c(NCC2CCN(CCN(C)C)C2)nc2c([N+](=O)[O-])c(Br)c(Br)cc21` (stereo not drawn) [Example 22O, 5,6-dibromo-N-({1-[2-(dimethylamino)ethyl]pyrrolidin-3-yl}methyl)-1-ethyl-4-nitro-1H-1,3-benzodiazol-2-amine]: the pIC50 with MV4-11 cells is 5.55; in the experiment on HEL92 cells, 5.60; in the experiment with HepG2 cells, 5.85; in the experiment with SW-480 cells it was 5.85.
`CCn1c(NCCCN2CCCC2)nc2c([N+](=O)[O-])c(Br)c(Br)cc21` [Example 22P, 5,6-dibromo-1-ethyl-4-nitro-N-[3-(pyrrolidin-1-yl)propyl]-1H-1,3-benzodiazol-2-amine]: the pIC50 in the experiment on MV4-11 cells was 5.54; with HEL92 cells, 5.23; in the experiment with HepG2 cells, 5.57; with SW-480 cells it was 5.60.
For the compound `CCn1c(N2CCNC(C)(C)C2)nc2c([N+](=O)[O-])c(Br)c(Br)cc21` [Example 22W, 5,6-dibromo-2-(3,3-dimethylpiperazin-1-yl)-1-ethyl-4-nitro-1H-1,3-benzodiazole], the inhibition at 1 µM at Pim-1 is 80%; at Pim-3 it was 57%; at FLT3wt, below 5%; on CDK2/E it was below 5%. Also, the pIC50 with MV4-11 cells was 5.77; in the experiment on HEL92 cells, 5.02; in the experiment with HepG2 cells, 5.82; in the experiment with SW-480 cells, 5.31.
